Results: publication PMC12519996, “Copper pyrithione complexes with endoplasmic reticulum localisation showing anticancer activity via ROS generation” (Chemical Science, 2025)
Blank lines part the entries; values can stand above or below the compound they belong to.

Columns and labels:
[1] = system: non-cancerous retinal epithelial ARPE-19 cells; experiment: Cell viability (MTT) assay, ARPE-19; assay type: cell-based; conditions: 24 h incubation, n = 9, MTT; read-out: IC50 ± SD, ARPE-19
Description: (§1) The potential therapeutic activity of the copper pyrithione complexes was determined by screening complexes for 24 hours against human cancer cell lines MCF-7 (breast) and MIA PaCa-2 (pancreatic), alongside a non-cancerous epithelial cell line ARPE-19 (retinal). As controls, cisplatin and CuCl2·2H2O were also included in the screen (Table 2). […]
(§2) All cell lines were maintained as monolayers in either T75 or T175 flasks in complete high glucose DMEM media (supplemented with 10% Fetal Bovine Serum, 1% sodium pyruvate, 1% L-glutamine, 1% penstrep). All cell lines were seeded at 4000 cells/well in a clear-bottom 96-well plate and incubated for 24 h for cells to adhere. The cells were treated with varying concentrations of each complex and left to incubate for a further 24 h. MTT reagent (20 mL, 5 mg/mL) was added to each well, and the plates were incubated for 3 h. The media was removed by aspiration, followed by the addition of DMSO (150 mL) to solubilise the formazan. The absorbance was read using a Clariostar plate reader at 540 nm. Results were plotted on a logarithmic scale, and the half maximal inhibitory concentration (IC 50) was determined from a triplicate of triplicate repeats and reported as an IC 50 ± Standard Deviation (SD). […]

[2] = system: breast cancer MCF-7 cells; experiment: Cell viability (MTT) assay, MCF-7; assay type: cell-based, human; conditions: for IC50: 24 h incubation, n = 9, MTT, read-out: IC50 ± SD, MCF-7; for Selectivity index (SI) against MCF-7: IC50 against non-cancerous ARPE-19 cells divided by IC50 against MCF-7
Description: as §1, §2

[3] = system: pancreatic cancer MIA PaCa-2 cells; experiment: Cell viability (MTT) assay, MIA PaCa-2; assay type: cell-based, human; conditions: for IC50: 24 h incubation, n = 9, MTT, read-out: IC50 ± SD, MIA PaCa-2
Description: as §1, §2

MCF-7 cells [4] = experiment: Reactive oxygen species study, H2DCFDA stain (Method 1); assay type: cell-based, human; conditions: complex at 10 μM for 1 h, H2DCFDA 20 μM for 30 min
From the text: To understand a potential mechanism of action, we determined production of reactive oxygen species (ROS) using fluorescent microscopy assays. ROS production is a common mode of therapeutic activity of copper complexes.[43] […] In the presence of ROS, H2DCFDA converts to a fluorescent dye that can be observed using microscopy. […] By contrast, control cells with no pyrithione complex added show little fluorescence (Fig. 6A). […] (Fig. 6B), [Cu(6-Me-PT)2] (Fig. 6C), and [Cu(3-OMe-PT)2] […] (Fig. 6D) was weaker. This variation correlates well with the cytotoxicity data in Table 2, with the methyl and methoxy complexes also showing the highest activity.
Next, cells were dosed at two concentrations of pyrithione complex to determine whether production of ROS is dose-dependent. Results for [Cu(3-OMe-PT)2] are shown at 1 μM (Fig. 6E) and 10 μM (Fig. 6F) after 1 hour; results for other complexes are shown in the SI (Fig. S11 and 12). In all cases, the fluorescence intensity increases in assays with 10 μM complex, compared to assays with 1 μM complex, supporting a mode of action where increasing complex concentration leads to increased ROS generation and higher cytotoxicity. […]
absorbance and K = binding constant. […]
The cells were treated with varying
Results were plotted on a
Reactive oxygen species study:
Method 1: 2′,7′-dichlorodihydrofluorescein diacetate (H 2DCFDA) stain: […]
untreated sample (negative control). After this time, 2′,7′-dichlorodihydrofluorescein diacetate […]
Stock solutions of the compounds (5 mM) were made

[5] = Thermodynamic stability constant, Benesi-Hildebrand UV-vis titration; assay type: physicochemical; conditions: Benesi-Hildebrand method, MeCN:H2O 1:1, absorbance at 320 nm
Description: (§3) Where [M] is concentration of copper, [L] is concentration of the activated ligand, b is the pathlength, which was kept at 1 cm, ɛ is molar extinction coefficient of the complex, A is absorbance and K = binding constant.
All cell lines were maintained as monolayers in either T75 or T175 flasks in complete high glucose DMEM media (supplemented with 10% Fetal Bovine Serum, 1% sodium pyruvate, 1% L-glutamine, 1% penstrep). All cell lines were seeded at 4000 cells/well in a clear-bottom 96-well plate and incubated for 24 h for cells to adhere. The cells were treated with varying concentrations of each complex and left to incubate for a further 24 h. MTT reagent ([…], 5 mg/mL) was added to each well, and the plates were incubated for 3 h. The media was removed by aspiration, followed by the addition of DMSO ([…]) to solubilise the formazan. The absorbance was read using a Clariostar plate reader at 540 nm. Results were plotted on a logarithmic scale, and the half maximal inhibitory concentration (IC 50) was determined from a triplicate of triplicate repeats and reported as an IC 50 ± Standard Deviation (SD).

[6] = Lipophilicity, octanol:water shake-flask method with ICP-OES copper quantification; conditions: copper by ICP-OES, triplicate
Description: Due to the low aqueous solubility of [Cu(PT)2], inductively coupled plasma-optical emission spectroscopy (ICP-OES) was used to quantify copper in the octanol and water layers (see SI).
General procedure for logP measurement:
Stock solutions (10 mM) of the tested copper complexes were prepared in DMSO solvent.
Water and octanol were saturated with the other solvent to match the final shake-flask
conditions. Next, log P values were determined using the shake-flask method. For each
complex, 60 µl of the stock solution was added to a mixture of 3 ml water and 3 ml n-octanol.
The solution was shaken by hand and vortexed. The layers were separated and analysed by
inductively coupled plasma optical emission spectroscopy (ICP-OES). For the octanol layer,
100 µl was collected in a vial and the solvent was evaporated under high vacuum. Next, the
residue was dissolved in 100 µl methanol and further diluted with 10 ml of 5% aqueous nitric
acid (HNO 3) solution for digestion. For the water layer, 1 ml of solution was diluted with 9 ml
of 5% aqueous HNO 3 solution. After analysis through ICP-OES technique, the amount of
copper in each sample was determined in ppm. To remove background copper, the exact
conditions were repeated in the absence of copper pyrithione complexes and the values were
subtracted from the measured values. The partition coefficient (P) and respective logP values

[7] = system: HepG2 (liver) cancer cell line; conditions: cited from earlier work
[8] = system: MCF-7 (breast) cancer cell line; conditions: cited from earlier work
MCF-7 cells [9] = conditions: dosed, fixed
Description: as §3
as §2, with “MTT reagent (20 mL, 5 mg/mL) was added to each well, and the plates were incubated for 3 h. The media was removed by aspiration, followed by the addition of DMSO (150 mL) to solubilise the formazan.” left out
MCF-7 cells were seeded into a black 96 well optical bottom plate at 8000 cells/well in phenol-red free complete DMEM medium (100 μl), and incubated at 37 °C and 5% CO 2 for 24 h. […] Cells were gently washed with PBS (2 x 100 µl), and 100 µl of PBS was added to each well before reading.
Fluorescence images were obtained using Zeiss Axio Observer 7 inverted microscope at excitation at 488 nm and emission at 509 nm, and analysed using ZEN 3.8 software. […]

[10] = Solubility by observation; conditions: aqueous and organic solvents, qualitative
[11] = system: U266 (myeloma) cancer cell line; conditions: cited from earlier work
[12] = system: NCI-H929 (myeloma) cancer cell line; conditions: cited from earlier work

SMILES: N.N.[Cl][Pt][Cl] [Cisplatin, reference compound]
IC50 [1]: 13000 ± 100 nM
IC50 [2]: 40000 ± 1000 nM
IC50 [3]: > 100000 nM
Selectivity index (SI) against MIA PaCa-2 ([3]; IC50 against non-cancerous ARPE-19 cells divided by IC50 against MIA PaCa-2): < 0.13

IC50 [2]: > 100000 nM
IC50 [3]: > 100000 nM
SMILES: [Cl][Cu][Cl] [CuCl2·2H2O, reference compound]
IC50 [1]: 83000 ± 2000 nM

SMILES: Cc1cccn([O-])c1=S.Cc1cccn([O-])c1=S.[Cu+2] [[Cu(3-Me-PT)2]]
IC50 [1]: 2200 ± 100 nM
IC50 [2]: 347 ± 6 nM
Selectivity index (SI) against MCF-7 [2]: 6.34
IC50 [3]: 7100 ± 200 nM

IC50 [2]: 220 ± 10 nM
Log(K/(M^−2)) [5]: 7.560 ± 0.002
IC50 [3]: 2700 ± 100 nM
SMILES: COc1ccc[n+]([O-])c1[S][Cu][S]c1c(OC)ccc[n+]1[O-] [[Cu(3-OMe-PT)2]]
ROS production, H2DCFDA fluorescence (MCF-7 cells [4]): brightest fluorescence
IC50 [1]: 870 ± 40 nM
Selectivity index (SI) against MCF-7 [2]: 3.95

SMILES: [Cu+2].[O-]n1ccc(C(F)(F)F)cc1=S.[O-]n1ccc(C(F)(F)F)cc1=S [[Cu(4-CF3-PT)2]]
IC50 [1]: 17300 ± 400 nM
IC50 [2]: 8900 ± 300 nM
IC50 [3]: 21600 ± 400 nM

SMILES: Cc1cc[n+]([O-])c([S][Cu][S]c2cc(C)cc[n+]2[O-])c1 [[Cu(4-Me-PT)2]]
IC50 [1]: 1800 ± 100 nM
IC50 [2]: 690 ± 20 nM
IC50 [3]: 8500 ± 300 nM

SMILES: Cc1cccc([S][Cu][S]c2cccc(C)[n+]2[O-])[n+]1[O-] [[Cu(6-Me-PT)2]]
ROS production, H2DCFDA fluorescence (MCF-7 cells [4]): brightest fluorescence
IC50 [1]: 570 ± 30 nM
IC50 [2]: 570 ± 10 nM
Log(K/(M^−2)) [5]: 7.498 ± 0.005
IC50 [3]: 2100 ± 100 nM

SMILES: On1ccccc1=S.On1ccccc1=S.[Cu] [[Cu(PT)2], copper pyrithione]
ROS production, H2DCFDA fluorescence (MCF-7 cells [4]): brightest fluorescence
Log P [6]: 2.34
IC50 against HepG2 [7]: submicromolar
IC50 [1]: 410 ± 50 nM
IC50 against MCF-7 [8]: submicromolar
IC50 [2]: 270 ± 10 nM
ROS levels compared to menadione, CellROX stain (MCF-7 cells [9]): lower levels of ROS
Solubility (by observation) [10]: low solubility
IC50 against U266 [11]: submicromolar
Log(K/(M^−2)) [5]: 7.528 ± 0.004
IC50 [3]: 2220 ± 80 nM
IC50 against NCI-H929 [12]: submicromolar
